Measurements published in paper PMC3125149, “SCYX-7158, an Orally-Active Benzoxaborole for the Treatment of Stage 2 Human African Trypanosomiasis” (PLoS Neglected Tropical Diseases, 2011).
Converted amounts (≈) assume the structure as drawn. Where two headings read alike, the source gives them in different places.

Columns and labels:
T. b. brucei 427 = assay: In vitro compound sensitivity assay (resazurin viability); type: cell-based; details: Trypanosoma brucei
Text: (§1) The bloodstream-form T. b. brucei 427 strain was obtained from Dr. K. Stuart (Seattle Biomedical Research Institute, Seattle, WA) and was used for routine assessment of compound sensitivity in vitro. Additional strains used in vitro include T. b. rhodesiense STIB900, isolated in 1992 from a patient in Tanzania, and T. b. gambiense 108R, isolated from a patient in Democratic Republic of Congo in 2005. T. b. brucei EATRO 110 was a generous gift from the late William Trager of the Rockefeller University. T. b. brucei TREU 667 strains were kindly provided by F. W. Jennings at the University of Glasgow. Both T. b. brucei EATRO 110 and TREU 667 were cultured according to previously described conditions and used for in vivo studies.[18], [19]
(§2) T. b. brucei was cultured in complete HMI-9 medium,[20] which contains 10% fetal bovine serum (FBS) (Invitrogen, Carlsbad, CA), 10% Serum Plus medium (SAFC Biosciences, Lenexa, KS), and 100 units/mL penicillin and 0.1 mg/mL streptomycin. The trypanosomes were propagated in T-25 vented cap flasks (Corning Inc., Lowell, MA) at 37°C and 5% CO2 with humidity. To ensure log growth phase, trypanosomes were sub-cultured at appropriate dilutions (typically 1∶100) every 2–3 days in fresh HMI-9 medium. T. b. rhodesiense parasites were grown in MEM medium with Earle's salts supplemented with 15% horse serum. For T. b. gambiense, the MEM medium was supplemented with 5% heat-inactivated fetal calf serum (FCS) and 15% human serum.[21] L929 mouse fibroblast cells (ATCC CCL1, American Type Culture Collection, Rockville, MD) were used to determine parasite versus mammalian cell selectivity. Cells were cultured in Dulbecco's Modified Eagle Medium (DMEM), supplemented with 10% FBS, L-glutamine and 100 units/mL penicillin and 0.1 mg/mL streptomycin. MDCKII-hMDR1 cells were generously provided by P. Borst at the Netherlands Kancer Institute. Cells were cultured in DMEM with Glutamax, 10% (v/v) FBS, and 100 units/mL penicillin and 0.1 mg/mL streptomycin. Cell monolayers were fed with cell culture media 24 h after seeding and used for permeability studies 3 days later.
(§3) Compounds to be tested were serially diluted in DMSO and added to 96-well plates to give final concentrations ranging from 5 to 0.01 µg/mL. T. b. brucei parasites in the log phase of growth were diluted in HMI-9 media and added to each well for a final concentration of 1×10^4 parasites per well. For the sensitivity assays using T. b. rhodesiense and T. b. gambiense, pararasites were cultured in MEM supplemented with Baltz components (8), diluted in the aforementioned culture media, and added to each well at a density of 1×10^3 cells/well. The final concentration of DMSO was 0.5% and the total volume was 100 µL/well. After a 72 h incubation, resazurin (Sigma-Aldrich, St. Louis, MO) was added to each well [20 µL of 25 mg/100 mL stock in phosphate buffered saline (PBS)] and incubated for an additional 4–6 h.[22] To assess cell viability, fluorescence was quantified using an EnVision Multilabel Plate Reader (Perkin Elmer, Waltham, MA) at an excitation wavelength of 530 nm and emission of 590 nm. Triplicate data points were averaged to generate sigmoidal dose-response curves and determine IC50 values using XLfit curve fitting software from IDBS (Guilford, UK). The IC50 is defined as the amount of compound required to decrease parasite or cell viability by 50% compared to those grown in the absence of the test compound. […]

T. b. gambiense 108R = assay: as above; type: cell-based; details: Trypanosoma brucei, 72 h incubation, n = 1
Text: as §1, §2, §3

[1] = system: T. b. rhodesiense STIB 900; assay: as above; type: cell-based; details: Trypanosoma brucei; 72 h incubation; n = 1
Text: as §1, §2, §3

[2] = system: L929 mouse fibroblast cells; assay: Mammalian cell cytotoxicity; type: cell-based
Experimental: as §2, with “later. […]” for “later.”

[3] = system: T. b. brucei, T. b. rhodesiense and T. b. gambiense strains; assay: Whole cell assays across representative strains (text summary of Table 1); type: cell-based; details: Trypanosoma brucei; 72 h incubation; range over strains of Table 1; read-out: IC50 values across parasite strains
Experimental: as §3

[4] = Plasma protein binding by rapid equilibrium dialysis; type: in vitro ADME; details: for fraction unbound at 4 h: read-out: unbound fraction (fu)
Experimental: Binding to human or mouse plasma proteins or mouse brain homogenate was determined by rapid equilibrium dialysis (RED) (Pierce, Rockford, IL) using a 48-well plate-based format according to the manufacturer's instructions. Briefly, test compound at the required concentrations was added to fresh human or mouse plasma (Bioreclamation, Liverpool, NY) or freshly prepared mouse brain homogenate. Duplicate aliquots of each sample were transferred into the sample chambers of the RED devices, and dialysis buffer (BupH PBS) was added to the buffer chambers. The plates were sealed and incubated at 37°C for 4 h. After dialysis, samples collected from the buffer and tissue chambers were treated with ice-cold methanol (3 volumes for plasma, 4 volumes for brain) to precipitate proteins. The treated samples were centrifuged for 10 min at 3×10^3 g at 15°C. The supernatants were assayed for test compound by LC-MS/MS. Calibration standards and quality control samples were prepared in matched matrix and assayed with samples. Values for unbound and bound fractions and mass balance were calculated. Concordance of binding for each batch of plasma was confirmed by assay of warfarin, imipramine and carbamezapine. Acceptance criterion for mass balance was 70–120%.

With `CC1(C)OB(O)c2cc(NC(=O)c3ccc(F)cc3C(F)(F)F)ccc21` [SCYX-7158] as the compound, how does the IC50 (T. b. brucei 427; 72 h incubation, n = 9) read?
The IC50 was 0.292 ± 0.019 µg/mL (≈ 0.795 µM).

What about the MIC (T. b. brucei 427; T. b. brucei S427, visual inspection) of the same compound?
The MIC was 0.6 µg/mL (≈ 1.63 µM).

And the IC50 (T. b. gambiense 108R)?
The IC50 was 0.165 µg/mL (≈ 0.449 µM).

And the IC50 [1]?
The IC50 was 0.294 µg/mL (≈ 0.801 µM).

What about the IC50 ([2]; Mouse L929 fibroblast, n = 4) of the same compound?
Its IC50 is over 50 µg/mL.

What about the “inhibition of cell proliferation” value ([2]; drug concentrations up to 50 µg/mL) of the same compound?
Its value is “no significant inhibition”.

And the IC50 [3]?
The IC50 was 0.07 to 0.37 µg/mL (≈ 0.191 to 1.01 µM).

And the fraction unbound at 4 h, 1 µg/mL ([4]; human plasma)?
Its fraction unbound at 4 h, 1 µg/mL is 0.013.

And the fraction unbound at 4 h, 50 µg/mL ([4]; human plasma)?
The fraction unbound at 4 h, 50 µg/mL was 0.055.

And the fraction unbound at 4 h ([4]; mouse, mouse plasma at the MIC (∼0.6 µg/mL))?
The fraction unbound at 4 h was 0.003.

And the fraction unbound at 4 h ([4]; mouse, mouse plasma at ∼15 µg/mL (Cmax at steady-state))?
The fraction unbound at 4 h was 0.032.

And the fraction unbound at 4 h, 1 µg/mL ([4]; mouse, mouse plasma)?
The fraction unbound at 4 h, 1 µg/mL was 0.0032.

What about the fraction unbound at 4 h, 50 µg/mL ([4]; mouse, mouse plasma) of the same compound?
Its fraction unbound at 4 h, 50 µg/mL is 0.0463.
